Entries after “also recorded” stand apart in the source; their conditions may differ.
Legend:
[1] = test system: purified enzyme MTA (aminotransferase); assay: Specificity for amino donor, 7-methoxy-2-tetralone as amino acceptor (Example 3); assay type: biochemical, Pseudomonas fluorescens KNK08-18; conditions: for Relative Activity (%): amino donor varied, 14 mM (racemic 28 mM), acceptor 14 mM 7-methoxy-2-tetralone, 30° C., 1 hour, activity with (S)-α-phenethylamine is 100
Procedure: In 20 μL of the purified Enzyme, 380 μL of a 0.1M potassium phosphate buffer containing 14 mM of 7-methoxy-2-tetralone and 14 mM (in case of the racemic amine compound, 28 mM)) of an amine compound of various type was added. After the mixture was reacted at 30° C. for 1 hour, 20 μL of 3N hydrochloric acid was added therein to stop the reaction. The reaction solution thus obtained was analyzed via high-performance liquid chromatography so as to quantitatively analyze 7-methoxy-2-aminotetralin thus obtained. Thereby, the amino group transfer activities with the various amino compounds were analyzed.
(§1) [Analysis Conditions of High-Performance Liquid Chromatography]
(§2) • Column: Cosmosil 5C8-MS (Nacalai Tesque Inc.) • Carrier: 30 mM potassium phosphate buffer (pH 2.5)/acetonitrile/methanol=4/1/1 (by volume) • Flow Rate: 0.9 mL/min • Detection: 254 nm

[2] = test system: purified enzyme MTA (aminotransferase); assay: Specificity for amino donor, pyruvic acid as acceptor, dabsylated alanine quantified (Example 4); assay type: biochemical, Pseudomonas fluorescens KNK08-18; conditions: for Amino group transfer activity as amino donor (in words): acceptor pyruvic acid; for Relative Activity (%): amino donor varied, 14 mM, acceptor 14 mM pyruvic acid, pH 7.5, 30° C., 1 hour, activity with (S)-α-phenethylamine is 100
Procedure: (§3) The amino group transfer activity measurement is carried out as follows: Firstly, 20 μL of a purified enzyme solution having a protein concentration of 0.2 mg/mL is added to 380 μL of a substrate solution having the following composition. After carrying out reaction at 30° C. for 1 hour therein, 20 μL of 3N hydrochloric acid is added therein to stop the reaction. Then, into 20 μL of the resultant reaction mixture, a 0.2M sodium carbonate aqueous solution of 80 μL and an acetone solution of 200 μL containing dabsyl chloride by 3.3 mg/mL are added. Then, the resultant mixture is reacted at 70° C. for 10 min. After 20 μL of acetic acid is added therein with stirring. The reaction mixture thus obtained is analyzed by high-performance liquid chromatography thereby to quantitatively analyze dabsylated alanine.
as §3, with “purified enzyme obtained in Example 1 was analyzed in terms of its reactivity to typical substrates of ω-amino acid transaminase.” for “amino group transfer activity measurement is carried out as follows:”, “was” for “is”, “[…]” for “380 μL”, “were” for “are”, “alanine. Results of the analysis are shown in Table 2, which the amino group transfer activities are shown as relative activities where the activity with (S)-α-phenethylamine as the amino donor is 100.” for “alanine.”
(§4) [Substrate Solution Composition]
(§5) Pyridoxal phosphate 0.02 mM
(§6) Potassium Phosphate Buffer (pH 7.5) 0.1M
(§7) [High-Performance Liquid Chromatography Analysis Conditions]
(§8) Column: Deverosil ODS-HG-3 (Nomura Chemical Co., Ltd.)
(§9) Carrier: Acetonitrile/0.045M acetate buffer (pH 4.1)=35/65 (by volume)

[3] = test system: purified enzyme MTA (aminotransferase); assay: Specificity for amino acceptor, (S)-α-phenethylamine as donor (Examples 5 and 6); assay type: biochemical, Pseudomonas fluorescens KNK08-18; conditions: for Activity as amino acceptor (in words): donor (S)-α-phenethylamine
Procedure: The purified enzyme obtained in Example 1 was analyzed in terms of substrate specificity regarding amino acceptors. In 20 μL of the purified Enzyme, 380 μL of a 0.1M potassium phosphate buffer containing 14 mM of (S)-α-phenethylamine and 14 mM of a ketone compound of various type was added. After the mixture was reacted at 30° C. for 1 hour, 20 μL of 3N hydrochloric acid was added therein to stop the reaction. Results of the analysis are shown in Table 3, in which the relative activities are shown where the activity with pyruvic acid as the amino acceptor is 100.
as §1, §2
The purified enzyme obtained in Example 1 was analyzed in terms of substrate specificity regarding amino acceptors in the same manner as in Example 5.

[4] = test system: MTA (present invention); assay: Substrate specificity, comparison with ω-amino acid transaminase (Example 7), Enzyme A; assay type: biochemical, Pseudomonas fluorescens KNK08-18; conditions: for Reactivity as amino donor (in words): Enzyme A (MTA), receptor pyruvic acid or 2-ketoglutaric acid; for Relative activity, Enzyme A: donor 14 mM, activity with (S)-α-phenethylamine is 100
Procedure: The purified enzyme obtained in Example 1 was analyzed in terms of its reactivity to typical substrates of ω-amino acid transaminase. Firstly, 20 μL of a purified enzyme solution having a protein concentration of 0.2 mg/mL was added to 380 μL of a substrate solution having the following composition. After carrying out reaction at 30° C. for 1 hour therein, 20 μL of 3N hydrochloric acid was added therein to stop the reaction. Then, into 20 μL of the resultant reaction mixture, a 0.2M sodium carbonate aqueous solution of 80 μL and an acetone solution of 200 μL containing dabsyl chloride by 3.3 mg/mL were added. Then, the resultant mixture was reacted at 70° C. for 10 min. After 20 μL of acetic acid was added therein with stirring. The reaction mixture thus obtained was analyzed by high-performance liquid chromatography thereby to quantitatively analyze dabsylated alanine or […]. Results of the analysis are shown in Table 5, in which the relative activities are shown where the activity with (S)-α-phenethylamine as the amino donor is 100. In Table 5, the values of activities of ω-amino acid:pyruvic acid transaminase and 4-amino butyric acid: 2-ketoglutaric acid transaminase are from the literatures “Agric. Biol. Chem. 41, 1701-1706 (1977), Arch. Biochem. Biophys. 200, 156-164 (1980)”.
as §4
Pyruvic acid or 2-ketoglutaric acid 14 mM
as §5, §6, §7, §8, §9

[5] = test system: 4-Aminobutylic Acid: 2-Ketoglutaric Acid Transaminase; conditions: amino group receptor 2-ketoglutaric acid; values from the literature; cited from earlier work
[6] = molecular target: T1, ω-Amino Acid: Pyruvic Acid Transaminase (Pseudomonas putida, UniProt P28269); conditions: amino group receptor pyruvic acid; values from the literature; cited from earlier work
T1 sequence (P28269 1-449): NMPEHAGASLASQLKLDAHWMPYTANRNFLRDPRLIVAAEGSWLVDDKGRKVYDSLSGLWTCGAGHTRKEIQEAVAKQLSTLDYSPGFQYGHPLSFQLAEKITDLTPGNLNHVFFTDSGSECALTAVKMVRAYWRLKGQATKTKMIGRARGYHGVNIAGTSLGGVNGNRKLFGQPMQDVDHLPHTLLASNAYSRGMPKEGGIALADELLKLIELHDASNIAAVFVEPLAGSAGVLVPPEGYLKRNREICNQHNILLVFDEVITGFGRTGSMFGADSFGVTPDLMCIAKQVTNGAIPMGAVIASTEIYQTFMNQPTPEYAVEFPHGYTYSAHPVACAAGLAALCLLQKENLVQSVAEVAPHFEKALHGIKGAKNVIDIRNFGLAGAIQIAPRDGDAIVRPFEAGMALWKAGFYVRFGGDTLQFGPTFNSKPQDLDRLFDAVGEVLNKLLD

[7] = Table 4: amino acceptor varied, same manner as in Example 5, donor (S)-α-phenethylamine
[8] = Table 3: amino acceptor varied, 14 mM, donor 14 mM (S)-α-phenethylamine, 30° C., 1 hour, activity with pyruvic acid is 100
[9] = amino group receptor 2-ketoglutaric acid 14 mM
[10] = amino group receptor pyruvic acid 14 mM

NCCCCC(N)C(=O)O (racemic) [DL-lysine]
Relative Activity (%) [1]: 0% | Amino group transfer activity as amino donor (in words) [2]: no activity; also recorded: substantially inactive | Relative Activity (%) [2]: 0%

CCC(C)N (racemic) [±2-butylamine]
Relative Activity (%) [1]: 48%

CCCCCC(C)N (racemic) [±2-heptylamine]
Relative Activity (%) [1]: 93%

CCCC(C)N (racemic) [±2-pentylamine]
Relative Activity (%) [1]: 60%

CC(N)CCc1ccccc1 (racemic) [±3-amino-1-phenylbutane]
Relative Activity (%) [1]: 90%

CCCCC(N)CC (racemic) [±3-heptylamine]
Relative Activity (%) [1]: 19%

COc1ccc(CC(C)N)cc1OC (racemic) [±3′,4′-dimethoxyamphetamine]
Relative Activity (%) [1]: 88%

O=C1CCN(Cc2ccccc2)C1 [1-Benzyl-3-Pyrrolidinone]
Relative Activity (%) [3, 7]: 20%

CCCCCC(C)=O [2-Heptane]
Relative Activity (%) [3, 7]: 7%

CCCC(=O)C(=O)O [2-Keto-n-Valeric Acid]
Relative Activity (%) [3, 8]: 0.1%

CCC(=O)C(=O)O [2-Ketobutyric Acid]
Relative Activity (%) [3, 8]: 2%

O=C(O)CCC(=O)C(=O)O [2-Ketoglutaric Acid]
Relative Activity (%) [3, 8]: 0% | Activity as amino acceptor (in words) [3]: no activity

O=C1CCc2ccccc2C1 [2-Tetralone]
Relative Activity (%) [3, 7]: 17%

CC(=O)c1cccnc1 [3-Acetylpyridine]
Relative Activity (%) [3, 7]: 10%

CC(=O)c1cccc(O)c1 [3′-Hydroxyacetophenone]
Relative Activity (%) [3, 7]: 3%

COc1cccc(C(C)=O)c1 [3′-Methoxyacetophenone]
Relative Activity (%) [3, 7]: 10%

CC(=O)c1cccc(C(F)(F)F)c1 [3′-Trifluoromethylacetophenone]
Relative Activity (%) [3, 7]: 40%

NCCCC(=O)O [4-Aminobutyric Acid]
Reactivity as amino donor (in words) [4]: not reactive | Relative activity, Enzyme A [4, 9]: 0 | Relative activity, Enzyme C [5]: 100

CC(=O)c1ccc(Cl)cc1 [4′-Chloroacetophenone]
Relative Activity (%) [3, 7]: 30%

COc1ccc2c(c1)CC(=O)CC2 [7-Methoxy-2-Tetralone]
Relative Activity (%) [3, 7]: 10%

C[C@H](N)c1ccccc1 [(S)-α-phenethylamine, reference compound]
Amino group transfer activity as amino donor (in words) ([1]; acceptor 7-methoxy-2-tetralone): especially high activity | Relative Activity (%) [1]: 100% | Amino group transfer activity as amino donor (in words) [2]: active | Relative Activity (%) [2]: 100% | Reactivity as amino donor (in words) [4]: highly active | Relative activity, Enzyme A [4, 10]: 100

CC(=O)c1cnccn1 [Acetylpyrazine]
Relative Activity (%) [3, 7]: 100%

O=Cc1ccccc1 [Benzaldehyde]
Relative Activity (%) [3, 8]: 2%

CC(=O)CCc1ccccc1 [Benzylacetone]
Relative Activity (%) [3, 7]: 33%

CCCC=O [Butylaldehyde]
Relative Activity (%) [3, 8]: 18%

O=CC(=O)O [Glyoxylic Acid]
Relative Activity (%) [3, 8]: 99% | Activity as amino acceptor (in words) [3]: high activity; also recorded: active

C[C@H](N)C(=O)O [L-alanine]
Relative Activity (%) [1]: 20%

COCC(C)=O [Methoxypropanone]
Relative Activity (%) [3, 7]: 13%

CCC=O [Propionaldehyde]
Relative Activity (%) [3, 8]: 5%

NCCCCN [Putrescine]
Amino group transfer activity as amino donor (in words) [2]: no activity; also recorded: substantially inactive | Relative Activity (%) [2]: 0% | Reactivity as amino donor (in words) [4]: not reactive | Relative activity, Enzyme A [4, 10]: 0 | Relative activity, Enzyme B [6]: 18

CC(=O)C(=O)O [Pyruvic Acid, reference compound]
Relative Activity (%) [3, 8]: 100% | Activity as amino acceptor (in words) [3]: high activity; also recorded: active

NCCS(=O)(=O)O [Taurine]
Amino group transfer activity as amino donor (in words) [2]: no activity; also recorded: substantially inactive | Relative Activity (%) [2]: 0% | Reactivity as amino donor (in words) [4]: not reactive | Relative activity, Enzyme A [4, 9]: 0 | Relative activity, Enzyme A [4, 10]: 0 | Relative activity, Enzyme B [6]: 132 | Relative activity, Enzyme C [5]: 8

NCc1ccccc1 [benzylamine]
Relative Activity (%) [1]: 35%

NC1CCCCC1 [cyclohexylamine]
Relative Activity (%) [1]: 22%

CC(C)CN [isobutylamine]
Relative Activity (%) [1]: 8%

CC(C)N [isopropylamine]
Relative Activity (%) [1]: 10%

CCCCCN [n-amylamine]
Relative Activity (%) [1]: 11%

CCCCN [n-butylamine]
Relative Activity (%) [1]: 7%

CCN [n-ethylamine]
Relative Activity (%) [1]: 6%

CCCN [n-propylamine]
Relative Activity (%) [1]: 6%

NCCC(=O)O [β-alanine]
Relative Activity (%) [1]: 0% | Amino group transfer activity as amino donor (in words) [2]: substantially inactive | Amino group transfer activity as amino donor (in words) ([2]; listed as Valanine): no activity | Relative Activity (%) [2]: 0% | Reactivity as amino donor (in words) [4]: not reactive | Relative activity, Enzyme A [4, 9]: 0 | Relative activity, Enzyme A [4, 10]: 0 | Relative activity, Enzyme B [6]: 100 | Relative activity, Enzyme C [5]: 0

NCCc1ccccc1 [β-phenethylamine]
Relative Activity (%) [1]: 22%

Reference: patent US8431378B2, “Aminotransferase, gene encoding the same, and methods of using them” (Kaneka Corporation, priority 2005, dated 2013)
